Experiments:
[1] = system: GA-primed murine splenocytes; experiment: Functional gene expression analysis (Ingenuity Pathways Analysis: biological functions, canonical pathways); parameters: species or system mouse; conditions: vs. Medium
Method: To identify the leading biological mechanisms associated with genes induced in splenocytes by glatiramoids, gene functional annotation, enrichment, and pathway analyses were performed by Ingenuity Pathways Analysis (IPA) Suite (www.ingenuity.com). The program integrates data from various experimental platforms and primary literature sources to provide insight into molecular interactions, cellular phenotypes, and disease processes, and then predicts downstream biological effects of gene transcription changes. IPA web software was also used to reconstruct regulatory genes and transcriptional factors functional networks. A significance score (using the right-tailed Fisher's exact test and expressed as a p value) for each process is calculated as the number of gene transcripts that participate in a network or pathway relative to the total number of these genes in all functional/pathway annotations stored in the IPA database. All p values were applied for multiple testing corrections using Benjamini-Hochberg FDR method with a cut off at p =0.05.

[2] = system: GA-primed murine splenocytes; experiment: Differentially expressed genes GA vs PG by multiple parametric tests (ANOVA, LIMMA with background subtraction, comparative marker selection SNR and t-test); assay type: cell-based, mouse
Method: The experimental design, data collection, and pre-processing steps have been previously described. […] After 3 days the mice were sacrificed, their splenocytes were isolated, and these splenocytes were mixed with activator solutions for 24 hours. […] Then the RNA was extracted and gene expression characterized by microarray using an Illumine WG-6_V2 chip. Illumina's BeadStudio software was utilized for image processing, quantification of signal intensity per bead, and background signal correction. The microarray data have been deposited in the Gene Expression Omnibus, under accession number GSE40566.
We then corrected for batch variation with ComBat (30) as implemented in the SVA package of R (62). Each microarray's chip designation was supplied a batch label; there were 18 batches in all. The labels for the treatments (i.e. drug product, reference standard . . . ) were added as covariates.
First, we computed the statistical significance of differential expression between treatments using the Analysis of Variance (ANOVA) method for each probe (65), adjusting for multiple hypothesis testing using the Benjamini-Hochberg False Discovery Rate (FDR) correction (66). […] The coefficients for the linear model were tested for significance using a modified t-test (taking into account standard deviation) and the p-values for each probe were adjusted using FDR. […] We applied two separate techniques within this framework; a traditional T-test and a Signal-to-Noise Ratio test (SNR). For each of these two tests, we adjusted the nominal p-values via FDR. For all four tests described, we used an adjusted threshold that was less than or equal to 0.05.

[3] = system: GA-primed murine splenocytes; experiment: Non-parametric Wilcoxon rank sum test GA vs PG; assay type: cell-based, mouse
Text: Nominal p-values were FDR adjusted and only probes that were less than or equal to 0.05 were considered.

[4] = system: GA-primed murine splenocytes
[5] = system: GA-primed murine splenocytes; experiment: Microarray gene expression profiling of GA-primed splenocytes reactivated ex vivo (t-test / 1-way ANOVA vs. Medium or GA-RS); assay type: cell-based, mouse
Text: All experimental procedures conformed to accepted ethical standards for use of animals in research and were in accordance with Committee for the Care and Use of Experimental Animals guidelines and approved by the Teva Institutional Animal Care and Use Committee. For these experiments, we purchased 8- to 12-week old female (Balb/c×SJL)F1 mice (Harlan, Israel). […] Single cell suspension was prepared. […] Splenocytes (125 μL 10×10^6 SPL cell/mL suspension) were added to the activator solutions and incubated for 24 hours at 37° C. Then, cells were washed, diluted with RNA stabilization solution (RNAlater® solution, Applied Biosystems), and stored at 4° C. […] RNA quality was assessed by the absorbance ratio at 260/280 on and gel electrophoresis (Experion™, Bio-Rad, Hercules, Calif.). […] Microarray hybridization, array scanning, and initial preprocessing were performed by BioRap (Technion, Haifa, Israel). […] The subsequent bioinformatics analyses were conducted in the Bioinformatics Core Facility of the National Institute for Biotechnology in the Negev, Ltd. (NIBN, Beer-Sheva, Israel). Summarization of bead-level data to gene-level signals was performed using the R package “beadarray” (45) after removal of outliers greater than 3 median absolute deviations (MADs). Between-sample quantile normalization was performed using Partek Genomics Suite (Partek, Inc., St. Louis, Missouri), followed by correction of experimental batch effects (i.e., related to differences in dates of RNA extraction and array processing) using the Partek Batch Remover™ tool. […] Fold change values were presented in linear scale. […] RNA was extracted and full gene expression analysis was preformed.

Substance: glatiramer acetate [GA]
- Response, Activation of T lymphocytes [1]: Upregulated
- Response, Activation of antigen presenting cells [1]: Upregulated
- Response, Activation of lymphocytes [1]: Upregulated
- Response, Activation of mononuclear leukocytes [1]: Upregulated
- Response, Activation of phagocytes [1]: Upregulated
- Response, Development of hematopoietic progenitor cells [1]: Down-regulated
- Response, Differentiation of effector T lymphocytes [1]: Upregulated
- Response, Differentiation of naive lymphocytes [1]: No change
- Response, Expansion of lymphocytes [1]: No change
- Response, Expansion of mononuclear leukocytes [1]: No change
- Response, Immune response of antigen presenting cells [1]: Upregulated
- Response, Proliferation of B lymphocytes [1]: Upregulated
- Response, Proliferation of T lymphocytes [1]: No change
- Response, Proliferation of hematopoietic cell lines [1]: Upregulated
- Response, Proliferation of immune cells [1]: Upregulated
- Response, Proliferation of lymphocytes [1]: Upregulated
- Response, Quantity of cytotoxic T cells [1]: Down-regulated
- Response, Stimulation of antigen presenting cells [1]: Upregulated
- Response, Stimulation of macrophages [1]: Upregulated
- Response, Suppression of T lymphocytes [1]: Upregulated
- FOXP3 expression, GA vs PG [2]: significantly higher expression
- GPR83 expression, GA vs PG [2]: significantly higher levels of expression
- IFNG expression, GA compared to PG ([2]; probes ranked #1 and #3 by fold change): upregulated dramatically
- CD40 expression, GA vs PG [3]: significantly lower expression
- AVG expression CYP2S1 [4]: 6.418
- genes up- or down-regulated compared to medium ([5]; FDR-adjusted p value <0.05, fold change of 1.3 or more): 1474 genes
- FOXP3 expression ([5]; vs. Medium): over-expressed
- Fold Change CD40 ([5]; vs. Medium): 1.533
- Fold Change CD86 ([5]; vs. Medium): 1.365
- Fold Change FOXP3 ([5]; vs. Medium): 1.406
- Fold Change GATA3 ([5]; vs. Medium): 1.877
- Fold Change HLA-DMA ([5]; vs. Medium): 1.534
- Fold Change HLA-DMB ([5]; vs. Medium): 1.398
- Fold Change ICOS ([5]; vs. Medium): 2.164
- Fold Change IFNG ([5]; vs. Medium): 16.847
- Fold Change IFNGR2 ([5]; vs. Medium): −1.333
- Fold Change IL2 ([5]; vs. Medium): 2.074
- Fold Change IL2RA ([5]; vs. Medium): 2.457
- Fold Change IL2RG ([5]; vs. Medium): −1.386
- Fold Change IL4 ([5]; vs. Medium): 4.428
- Fold Change IL4R ([5]; vs. Medium): 1.578
- Fold Change IL6R ([5]; vs. Medium): −1.545
- Fold Change IL10RB ([5]; vs. Medium): −1.323
- Fold Change IL12RB1 ([5]; vs. Medium): 2.270
- Fold Change IL13 ([5]; vs. Medium): 1.330
- Fold Change IL17A ([5]; vs. Medium): 1.451
- Fold Change IL17F ([5]; vs. Medium): 2.365
- Fold Change IL18 ([5]; vs. Medium): −1.383
- Fold Change IL18R1 ([5]; vs. Medium): −1.726
- Fold Change TBX21 ([5]; vs. Medium): 2.654
- Fold Change TGFBR2 ([5]; vs. Medium): −1.436
- Fold Change TNF ([5]; vs. Medium): 1.475

From patent US20140193827A1 (TEVA PHARMACEUTICAL INDUSTRIES, LTD., priority 2013, published 2014)
